This note sets out measurements from patent US20260285879A1, “CDK INHIBITOR AND CRYSTAL FORM OF PHARMACEUTICALLY ACCEPTABLE SALT THEREOF, AND USE THEREOF” (priority 2023, published 2026).

Common to all, as to assay type: physicochemical
Data set [1] in a line: Stress testing (high temperature, high humidity, illumination). Particulars: for remaining at […] / remaining at 336 h / remaining at 720 h: read-out: Content.
A short description of data set [2]: Dynamic vapor sorption (DVS). The procedure: 4. Dynamic Vapor Sorption (DVS)
Instrument: TA Instruments Q5000 SA
Detection method: 20 to 50 mg of the sample was placed in a tared sample basket and automatically weighed, and DVS testing was performed according to the parameters in Table 7: Step Time: 60 min; Equilibration Time per RH %: 1 hour; Total Gas Flow Rate: 200 sccm; Gradient mode: 0%-90%-0% humidity variation, with a humidity variation amount of 10% for each gradient level between 0% and 90%, and gradient endpoint was determined by dm/dt<0.01% maintained for 10 minutes.

A short description of data set [3]: Stability test, placed open 7 days (HPLC purity, XRPD); grinding or crushing. The conditions noted are these: for remaining at […]: solid state, open, 7 days, read-out: Purity (Peak area %) 7 days. The source says:
Subsequently, the samples after 7 days were respectively detected by HPLC and XRPD to determine their chemical and physical stabilities.

Data set [4] can be described thus: Accelerated stability testing. The conditions noted are these: 40° C.±2° C./75%±5% RH. The procedure:
(2) Accelerated Stability Testing
(§1) Packaging: Simulated the commercial packaging (using a pharmaceutical-grade low-density polyethylene bag as the inner packaging and a polyester/aluminum/polyethylene composite bag for pharmaceutical packaging as the outer packaging)
Investigation conditions: 40° C.±2° C./75%±5% RH

Data set [5] can be described thus: Long-term stability testing. Particulars: 25° C.±2° C./60%±5% RH. The method, then: (3) Long-Term Stability Testing
as §1
Investigation conditions: 25° C.±2° C./60%±5% RH

Data set [6] in a line: Competition experiment between anhydrates and solvates and solvent activity experiment.
Where [7] appears, read: High Humidity (92.5% RH), 7 days.
Where [8] appears, read: High Humidity (92.5% RH), 14 days.
Setting [9] is: High Humidity (92.5% RH), 30 days.
Where [10] appears, read: High Temperature (60° C.), 7 days.
The mark [11] stands for this setting: High Temperature (60° C.), 14 days.
Setting [12] is: High Temperature (60° C.), 30 days.
[13] abbreviates: Illumination Testing 45001x ± 5001x, 7 days.
The mark [14] stands for this setting: Illumination Testing 45001x ± 5001x, 14 days.
Where [15] appears, read: Illumination Testing 45001x ± 5001x, 30 days.
The mark [16] stands for this setting: 60° C., 92.5% RH and 40° C./75% RH for 7 days.

Where two headings read alike, the source gives them in different places.

As to `CC(=O)c1c(C)c2cnc(Nc3ccc4c(c3)OC[C@@H]3CN(C5CCN(C)CC5)CCN43)nc2n(C2CCCC2)c1=O` [crystalline form A-I], the “Description Appearance” value in data set [1] (0 Day), in data set [1] (setting [7]), in data set [1] (setting [8]), in data set [1] (setting [9]), in data set [1] (setting [10]) and in data set [1] (setting [11]) was “Yellow” in each case. Besides, the “Description Appearance” value in data set [1] (setting [12]), in data set [1] (setting [13]), in data set [1] (setting [14]) and in data set [1] (setting [15]) was “Yellow” throughout. The crystalline form entry in data set [1] (0 Day) is “crystalline”; in data set [1] (setting [15]), “Unchanged”. Further, the remaining at […] turned out to be 100% in data set [1] (setting [7]); 100% in data set [1] (setting [10]); 101% in data set [1] (setting [13]); 99.2% in data set [3] (40° C./75% RH); 99.2% in data set [3] (60° C.); 99.2% in data set [3] (92.5% RH). In addition, the figures for the remaining at 336 h in data set [1] (setting [8]), in data set [1] (setting [11]) and in data set [1] (setting [14]) were 99.6%, 101% and 100%, respectively. Besides, the remaining at 720 h in data set [1] (setting [9]) amounted to 101%; in data set [1] (setting [12]), 100%; in data set [1] (setting [15]), 100%. Further, the Total impurities in data set [1] (setting [13]) was found to be 0.76%; in data set [1] (setting [14]) it was 0.79%; in data set [1] (setting [15]) it was 0.84%. Moreover, the loss on drying in data set [1] (setting [13]) was 0.07%; in data set [1] (setting [14]), 0.06%; in data set [1] (setting [15]), 0.07%. In addition, the “change in the description” value in data set [1] (all stress test conditions) is on record as “no significant change”. In addition, in data set [1] (high-humidity conditions), the “change in the hygroscopic weight gain” value is reported as “no significant change”. The “relevant substances compared with 0 month” value in data set [1] (high-humidity conditions) was “remained unchanged”. Moreover, the “change in relevant substances” value in data set [1] (high-temperature conditions) is reported as “no significant change”. In addition, in data set [2] (0%-90% RH), the “hygroscopicity (DVS)” value is “non-hygroscopic”. The “weight change (DVS)” value in data set [2] (across 0%-90% RH) is “approximately 0.17%”. Further, the “Purity (Peak area %) 0 day” value in data set [3] (0 day) is on record as 99.16 Peak area %. The “chemical stability (HPLC)” value in data set [3] (setting [16]) is “chemically stable”. Moreover, in data set [3] (setting [16]), the “crystalline form by XRPD after 7 days under the three conditions” value is “remained unchanged”. Further, the “crystalline form after grinding or crushing” value in data set [3] (grinding or crushing) is given as “remained unchanged”.
For the compound `CC(=O)c1c(C)c2cnc(Nc3ccc4c(c3)OC[C@@H]3CN(C5CCN(C)CC5)CCN43)nc2n(C2CCCC2)c1=O` [listing 1 of 4 here], the “Description Appearance” value in data set [4] (0 months), in data set [4] (1 month), in data set [4] (2 months), in data set [4] (3 months), in data set [4] (6 months) and in data set [5] (0 months) was “Yellow” in each case. In addition, the “Description Appearance” value in data set [5] (3 months), in data set [5] (6 months), in data set [5] (9 months), in data set [5] (12 months) and in data set [5] (18 months) was “Yellow solid” each time. Moreover, the Total impurities in data set [4] (0 months) was 0.84%; in data set [4] (1 month), 0.80%; in data set [4] (2 months), 0.82%; in data set [4] (3 months) it was 0.85%; in data set [4] (6 months), 0.77%; in data set [5] (0 months), 0.84%. The Total impurities in data set [5] (3 months) worked out at 0.89%; in data set [5] (6 months), 0.75%; in data set [5] (9 months) it was 0.73%; in data set [5] (12 months), 0.78%; in data set [5] (18 months), 0.71%. Besides, the crystalline form result in data set [4] (0 months) was “crystalline”; in data set [4] (3 months), “Unchanged”; in data set [4] (6 months), “Unchanged”; in data set [5] (0 months), “crystalline”; in data set [5] (3 months), “Unchanged”; in data set [5] (6 months), “Unchanged”. Also, the crystalline form entry in data set [5] (9 months), in data set [5] (12 months) and in data set [5] (18 months) was “Unchanged” throughout. In addition, the loss on drying in data set [4] (0 months) is reported as 0.03%; in data set [4] (1 month), 0.04%; in data set [4] (2 months), 0.02%; in data set [4] (3 months), 0.02%; in data set [4] (6 months), 0.08%; in data set [5] (0 months), 0.03%. Further, the loss on drying is given as 0.02% in data set [5] (3 months); 0.05% in data set [5] (6 months); 0.05% in data set [5] (9 months); 0.05% in data set [5] (12 months); 0.03% in data set [5] (18 months). In data set [4] (solid, 75% rh storage, 1 month, read-out: Measured content), the remaining at 720 h is 100%. In data set [4] (solid, 75% rh storage, 2 months, read-out: Measured content), the remaining at 1440 h was found to be 101%. The remaining at 2160 h in data set [4] (solid, 75% rh storage, 3 months, read-out: Measured content) came out at 101%; in data set [5] (solid, 60% rh storage, 3 months, read-out: Measured content) it was 101%. Moreover, the remaining at 4320 h turned out to be 101% in data set [4] (solid, 75% rh storage, 6 months, read-out: Measured content) and 101% in data set [5] (solid, 60% rh storage, 6 months, read-out: Measured content). Moreover, the remaining at 6480 h in data set [5] (solid, 60% rh storage, 9 months, read-out: Measured content) is 99.6%. For the same compound, the remaining at 8640 h in data set [5] (solid, 60% rh storage, 12 months, read-out: Measured content) was 101%. Moreover, the remaining at 12960 h in data set [5] (solid, 60% rh storage, 18 months, read-out: Measured content) was found to be 98.7%.
Take `CC(=O)c1c(C)c2cnc(Nc3ccc4c(c3)OC[C@@H]3CN(C5CCN(C)CC5)CCN43)nc2n(C2CCCC2)c1=O` [listing 2 of 4 here]: the “Test Results (crystalline form by XRPD)” value was “crystalline form A-I” in data set [6] (competition experiment, n-Butanol, room temperature) and “crystalline form A-I” in data set [6] (competition experiment, n-Butanol/Anisole (v:v = 1:1), room temperature).
Consider `CC(=O)c1c(C)c2cnc(Nc3ccc4c(c3)OC[C@@H]3CN(C5CCN(C)CC5)CCN43)nc2n(C2CCCC2)c1=O` [listing 3 of 4 here], for which the “Test Results (crystalline form by XRPD)” value is “crystalline form A-I” in data set [6] (solvent activity experiment, 20% Dimethyl sulfoxide (v/v)); “crystalline form A-I” in data set [6] (solvent activity experiment, 50% Dimethyl sulfoxide (v/v)); “crystalline form A-I” in data set [6] (solvent activity experiment, 80% Dimethyl sulfoxide (v/v)).
For the compound `CC(=O)c1c(C)c2cnc(Nc3ccc4c(c3)OC[C@@H]3CN(C5CCN(C)CC5)CCN43)nc2n(C2CCCC2)c1=O` [crystalline form F], the “XRPD pattern / crystalline form after the DVS test” value in data set [2] (after DVS test) is given as “did not change”. For the same compound, in data set [2] (at 80% RH), the “moisture absorption (DVS)” value was “approximately 3.8%”.
With `CC(=O)c1c(C)c2cnc(Nc3ccc4c(c3)OC[C@@H]3CN(C5CCN(C)CC5)CCN43)nc2n(C2CCCC2)c1=O` [listing 4 of 4 here], the “Test Results (crystalline form by XRPD)” value in data set [6] (solvent activity experiment, 20% Trifluoroethanol (v/v)) is reported as “crystalline form A-I”; in data set [6] (solvent activity experiment, 50% Trifluoroethanol (v/v)), “crystalline form A-I”; in data set [6] (solvent activity experiment, 80% Trifluoroethanol (v/v)), “crystalline form A-II”.
